A compilation of properties of binary mixtures (doi:10.1021/je300542s)

Test: xn = mol fraction of the nth substance listed
Settings: 101 kPa

O=C1CCCN1 + CC[n+]1ccn(C)c1.F[B-](F)(F)F
speed of sound [m/s]
Settings | 293.15 K | 298.15 K | 303.15 K | 308.15 K
x1 = 0.0786 | 1634.5 | 1622.4 | 1612.6 | 1602.5
x1 = 0.0912 | 1635 | – | 1613.4 | 1603.4
x1 = 0.1278 | 1636.6 | 1624.6 | 1615.4 | 1605.6
x1 = 0.1711 | – | 1626.5 | – | –
x1 = 0.2294 | – | – | 1620.5 | –
x1 = 0.2686 | 1642.3 | 1630.8 | 1622.3 | –
x1 = 0.3292 | 1644.6 | 1633.3 | 1624.5 | 1613.2
x1 = 0.3684 | 1646.2 | 1634.8 | 1626 | 1614
x1 = 0.4283 | 1648.7 | 1637.1 | 1627.7 | 1615
x1 = 0.4695 | 1650.2 | 1638.6 | 1628.3 | 1615.7
x1 = 0.5281 | – | 1640 | 1629.2 | 1615.9
x1 = 0.5711 | 1653.7 | 1641.1 | – | 1616.2
x1 = 0.6283 | 1655.2 | 1641.9 | 1629.5 | 1615.9
x1 = 0.6603 | 1656 | 1642.1 | 1629.2 | 1615.3
x1 = 0.7302 | 1656.7 | – | 1628 | –
x1 = 0.7598 | – | 1641.5 | 1627.1 | –
x1 = 0.8296 | 1656.4 | 1640.1 | 1624.9 | 1611
x1 = 0.8901 | – | 1638.4 | – | 1608.3

CC[n+]1ccn(C)c1.F[B-](F)(F)F + CN1CCCC1=O
speed of sound [m/s]
Settings | 293.15 K | 298.15 K | 303.15 K | 308.15 K
x2 = 0.0696 | – | – | 1598 | 1586.4
x2 = 0.0871 | – | 1607.6 | 1595.9 | 1584.2
x2 = 0.1273 | 1615.1 | 1603.2 | – | 1579.3
x2 = 0.1676 | 1611.5 | 1599.5 | 1587.2 | –
x2 = 0.2658 | 1605.6 | 1592 | 1579 | 1565.5
x2 = 0.2689 | 1605.3 | 1592 | – | 1565.2
x2 = 0.3228 | 1603.2 | 1589 | 1575.2 | 1560.7
x2 = 0.3683 | 1601.7 | 1586.9 | – | 1557.7
x2 = 0.4291 | 1600 | 1584.2 | – | –
x2 = 0.4744 | 1599.2 | 1582.6 | 1566.9 | 1551
x2 = 0.5227 | 1597.8 | 1581 | – | 1547.9
x2 = 0.5685 | 1596.9 | 1579 | 1562.4 | 1545.4
x2 = 0.6286 | 1595 | 1576.7 | 1559.3 | 1541.5
x2 = 0.6703 | 1593 | 1574.5 | – | 1539
x2 = 0.7291 | 1590.1 | 1571.2 | 1553.4 | 1534.5
x2 = 0.7711 | 1587.7 | – | 1550.1 | 1531.2
x2 = 0.8188 | 1584 | 1564.7 | – | –
x2 = 0.8887 | 1577.9 | 1558.4 | 1539.7 | 1520.3
